Where “and” joins values, the source holds several entries; their conditions need not be identical. Equal values may be shown once.
Experiments:
souris mâles = test: Intergroup aggressiveness test (number of fights after removal of the partition); format: in vivo; settings: mouse; dose not given
Description: Des essais comparatifs ont été entrepris pour mettre en évidence quels sont les effets chez l'animal qui permettent de distinguer les produits selon l'invention de leurs homologues fluorés connus. Parmi ces essais, on a résumé ceux concernant les propriétés antiagressives. Plus précisément, on a évalué la diminution de l'agressivité intergroupes selon la technique suivante : a.près avoir séjourné pendant 3 semaines de part et d'autre d'une cloison opaque séparant leur cage par le milieu, des groupes de trois souris mâles de 20 g chacune environ reçoivent, par voie intrapéritonéale, les produits à tester en solution dans de l'eau distillée, les animaux témoins ne recevant que de l'eau distillée par voie intrapéritonéale. Une demi-heure plus tard, les deux groupes d'une même cage sont réunis par retrait de la cloison opaque et on note le nombre de combats qui surviennent en 10 min. On a utilisé trois cages pour chaque produit à tester et six cages pour le lot témoin ne recevant pas les produits à tester.
Les résultats du tableau I ci-après donnent la diminution de l'agressivité intergroupes par rapport au lot témoin, tous les produits à tester étant administrés à la dose de 8 mg/kg par voie intrapéritonéale. […]

[1] = tested on: rat éveillé génétiquement hypertendu; test: Cardiovascular action, awake genetically hypertensive rat; format: in vivo
souris [2] = test: Asphyxic anoxia (gallamine triethiodide); format: in vivo; settings: mouse; highest dose 34 mg/kg, 30 min before gallamine triethiodide i.p.
Method: Des lots de 10 souris reçoivent le CRL 40827 30 min avant l'administration intrapéritonéale d: 34 mg/kg de triiodoéthy- late de gallamine. A la plus forte dose (34 mg/kg),le CRL 40827 empêche l'apparition des convulsions et de la mort chez 40% des animaux.
(§1) En procédant selon les modalités opératoires données ci-dessus pour le CRL 40827, on observe ce qui suit.

homme = test: Clinical use as sedative and antidepressant agents; format: in vivo; settings: clinic
rats = test: Interaction with amphetamine (stereotypies); format: in vivo, rat; settings: rat
Method: L'amphétamine (2 mg/kg) est injectée par voie intrapéritonéale à des lots de 6 rats, 30 min après l'administration de CRL 40827. […] Interaction avec la réserpine
as §1

rat = test: Interaction with apomorphine, rat; format: in vivo; settings: i.p. 30 min before apomorphine 0,5 mg/kg s.c.
Method: (§2) Le CRL 40827, en solution dans de l'eau distillée, a été administré par voie intrapéritonéale sous un volume de 20 ml/kg chez la souris mâle et un volume de 5 ml/kg chez le rat mâle. 1°) - Toxicité
Le CRL 40 827 est administré à des lots de 6 rats 30 min avant l'injection sous-cutanée de 0,5 mg/kg d'apomorphine.
as §1

souris [3] = test: Four-plate test, traction and electroshock; format: in vivo; settings: mouse, 30 min after dosing
Method: Le test est pratiqué sur des lots de 10 souris, 30 min après l'administration de CRL 40827.
as §1

souris [4] = test: Motility reduced by habituation to the enclosure; format: in vivo; settings: mouse; high dose 34 mg/kg
Method: Après 18 h de séjour dans les actimètres, les souris (6 par dose, 12 témoins) reçoivent le CRL 40827. Elles sont aussitôt replacées dans leurs enceintes respectives et, 30 min plus tard, on enregistre leur motilité pendant 30 min.
as §1

souris [5] = test: Interaction with oxotremorine; format: in vivo; settings: mouse
Method: Le CRL 40827 est administré à des lots de 6 souris 30 min avant l'injection intrapéritonéale de 0,5 mg/kg d'oxotrémo- rine. On observe que, dès la dose de 0,5 mg/kg, le CRL 40827 antagonise l'action hypothermisante de l'oxotrémorine; cet effet est très net à 32 mg/kg.
as §1

souris [6] = test: Motility reduced by hypoxic aggression (acute hypobaric anoxia); format: in vivo; settings: mouse
Method: Une demi-heure après avoir reçu le CRL 40827, les souris (10 par dose, 20 témoins) sont soumises à une anoxie hypobare aiguë (dépression de 8 x 10^4 Pa en 90 s, détente de 45 s), puis elles sont placées en actimètre où leur motilité est enregistrée pendant 10 min.
as §1

souris [7] = test: Interaction with reserpine (hypothermia, ptosis); format: in vivo; settings: mouse
Method: Quatre heures après l'injection intrapéritonéale de 2,5 mg/kg de réserpine, des lots de 6 souris reçoivent le CRL 40827.
as §1

souris [8] = test: Toxicity: maximal non-lethal dose DL-0, intraperitoneal; format: in vivo; settings: mouse, i.p.
Method: La dose maximale non mortelle, DL-0, est supérieure à 128 mg/kg et inférieure à 256 mg/kg, chez la souris, par voie I.P. 2°) - Action sur le SNC
as §2
La dose maximale non mortelle, DL-0, est supérieure à 64 mg/kg et inférieure à 128 mg/kg chez la souris mâle.
Le CRL 40854, en solution dans de l'eau distillée, a été administré par voie intrapéritonéale sous un volume de 20 ml/kg chez la souris màle et de 5 ml/kg chez le rat màle.
La dose maximale non mortelle DL-0 est supérieure à 128 mg/kg et inférieure à 256 mg/kg chez la souris.

[9] = tested on: rat anesthésié au Nembutal; test: Biliary secretion, rat anaesthetised with Nembutal; format: in vivo; settings: 1 to 3 h after I.V. injection of 5 mg/kg and 25 mg/kg
Method: (§3) Chez le chien anesthésié au Nembutal, le débit biliaire normal recueilli en 30 min est de 1,5 ml; le débit biliaire augmente après injection intraduodénale de CRL 40827 et passe à 1,75 ml pour 2,5 mg/kg de CRL 40827, à 2,25 ml pour 5 mg/kg et à 2,5 ml pour 10 mg/kg. Chez le rat anesthésié au Nembutal, le débit biliaire augmente 1 à 3 h après injection I.V. de CRL 40827 aux doses de 5 mg/kg et 25 mg/kg.

souris [10] = test: Spontaneous motility (actimeter); format: in vivo; settings: mouse, recorded 30 min, 30 min after dosing
Method: Une demi-heure après avoir reçu le CRL 40827, les souris (6 par dose, 12 témoins) sont placées en actimètre où leur motilité est enregistrée pendant 30 min.
as §1

[11] = tested on: chien anesthésié au Nembutal; test: Biliary secretion, dog anaesthetised with Nembutal; format: in vivo; settings: normal 1,5 ml
Method: as §3

cobaye = test: Local anaesthetic effect, intradermal injection, pin-prick test; format: in vivo; settings: guinea pig, intradermal 0,2 ml, concentrations 0,5 and 1%
Method: L'effet anesthésique a été étudié chez le cobaye après injection du CRL 40827 par voie intradermique sous un volume de 0,2 ml aux concentrations de 0,1, 0,5 et 1% (3 cobayes par dose). Chaque animal reçoit le sérum physiologique, la procaine et le CRL 40827 dans des zones délimitées.
Le test qui consiste en une série de six piqûres de la zone injectée est réalisé 5, 10, 15, 20, 25 et 30 min après l'injection.

chien anesthésié = test: Cardiovascular and respiratory action, anaesthetised dog; format: in vivo

CC(C)(C)NCC(O)c1ccccc1F (stereo not drawn) [CRL 40827, chlorhydratede 1-(2-fluorophényl)-2-tertiobutylamino-1-éthanol]
agressivité intergroupes / effet antiagressif (souris mâles): diminue l'agressivité intergroupes
pression artérielle et fréquence cardiaque [1]: hypotenseur et tachycardisant
animaux chez lesquels l'apparition des convulsions et de la mort est empêchée (souris [2]): 40%
résultats cliniques dans le domaine psychotrope en tant qu'agents sédatifs et antidépresseurs (homme): bons résultats
index de stéréotypies (amphétamine) (rats; 4 mg/kg): diminution isolée
stéréotypies amphétaminiques (rats; amphetamine 2 mg/kg i.p. 30 min after the compound): ne modifie pas
stéréotypies induites par l'apomorphine (rat): laisse inchangées
effets convulsivants de l'électrochoc (souris [3]): à forte dose, s'oppose aux effets convulsivants
incapacité motrice (traction) (souris [3]): ne provoque pas d'incapacité motrice majeure
nombre de passages punis (test des quatre plaques) (souris [3]): n'entraîne pas d'augmentation
activité motrice (souris habituées à l'enceinte) (souris [4]): semble provoquer une reprise modérée
signes de stimulation cholinergique périphérique (oxotrémorine) (souris [5]): laisse inchangés
tremblements provoqués par l'oxotrémorine (souris [5]): ne modifie pas
action hypothermisante de l'oxotrémorine (antagonisme) (souris [5]; 32 mg/kg): très net
action hypothermisante de l'oxotrémorine (souris [5]; from 0,5 mg/kg, 30 min before oxotremorine 0,5 mg/kg i.p.): antagonise
récupération motrice après anoxie hypobare (souris [6]): n'entraîne pas d'amélioration
ptôsis réserpinique (souris [7]): sans modifier
hypothermie réserpinique (souris [7]; from 0,5 mg/kg, 4 h after reserpine 2,5 mg/kg i.p.): combat nettement
dose maximale non mortelle, DL-0 (souris [8]): > 64 mg/kg and < 128 mg/kg
débit biliaire [9]: augmente
activité motrice spontanée (souris [10]): ne modifie pratiquement pas
débit biliaire recueilli en 30 min ([11]; dog, 5 mg/kg intraduodenal): 2,25 ml
débit biliaire recueilli en 30 min ([11]; dog, 10 mg/kg intraduodenal): 2,5 ml
débit biliaire recueilli en 30 min ([11]; dog, 2,5 mg/kg intraduodenal): 1,75 ml
effet anesthésique local (cobaye): présente un effet anesthésique local
minimal effective dose (chien anesthésié; Canis lupus familiaris, dog, read-out: dose from which the effets hypertenseurs de la noradrénaline are diminished): 1 mg/kg
pression artérielle et fréquence cardiaque (chien anesthésié; anaesthetised dog): hypotenseur et tachycardisant
dose of maximal effect on the effets hypertenseurs de la noradrénaline (chien anesthésié; dog): ~10 mg/kg
débit cardiaque (chien anesthésié; in vivo): reste égal
débits sanguins locaux (chien anesthésié; in vivo): n'augmentent pas
respiration (chien anesthésié; in vivo): stimule la respiration
résistances vasculaires des territoires explorés (vertébral, fémoral et rénal) et résistance périphérique totale (chien anesthésié; in vivo): diminue
travail du ventricule gauche et diastole (chien anesthésié; in vivo): diminue le travail du ventricule gauche et raccourcit la diastole

Source: patent EP0060954A1, “Derivatives of fluorophenacyl amines and their therapeutic use” (LABORATOIRE L. LAFON Société anonyme dite:, priority 1981, dated 1982)
